Positions of bridges follow the written chain, without caps; N, C: chain ends. Non-standard residues stand in square brackets, D forms with d. Residues, ends and D or L forms follow the SMILES beside them. Chains are numbered I, II in the order given. No end group written: not given here. Dap = NC[C@H](N)C(=O)O
Tests used:
[1] = tested on: NPY-induced increase of perfusion pressure in isolated perfused rat kidney; test: Isolated perfused rat kidney preparation; settings: antagonist infused during 5 min, read-out: IC50 for the inhibition of the NPY-induced increase of perfusion pressure
Experimental: Male CD rats (200-400 g) are anaesthetised with a mixture of Acepromazine (2.8 mg/kg) and Kenamine (112 mg/kg) injected i.p. The rat's abdomen is opened through the midline. The renal arteries and descending aorta are cleaned and, with minimal disruption of blood flow, one kidney is cannulated through the proximal renal artery using a stainless steel 20G blunt-tipped needle attached to Tygon tubing and a peristaltic pump. As soon as the first ligature is complete and perfusion of the kidney starts (10 ml/min) and the kidney is removed from the animal and placed in a constant temperature perfusion chamber. The perfusion pressure is followed by an on-line Statham pressure transducer and changes recorded in a Grass Polygraph.
Administration of Drugs: Neuropeptide Y and other agonists are administered by a single bolus injection (0.1 ml) through an injection port situated about 6 inches from the tip of the needle (approximately 0.3 ml, total volume). Antagonists are infused during 5 min (0.15 ml/min) into the kidney through an injection port situtated before the perfusion pump to allow for good mixing and constant concentration (dilution of 0.15 ml into 10 ml). […]
Results: Using the above experimental procedure we have determined the IC50 for the inhibition of the NPY-induced increase of perfusion pressure for: […]

[2] = biological target: NPY receptors in rat brain membranes; test: Radioreceptor binding assay (3H-NPY, rat brain membranes); settings: 37° C.
Experimental: Rat brain membranes were incubated with ^3 H-NPY up to equilibrium at 37° C. in the presence of several peptides at different concentrations and in a final volume of 1 ml. Non-specific binding was determined by adding 100 nM of cold NPY. At the end of the incubation period the samples were either filtered (GF/C filter), or 0.5 ml of cold incubation buffer was added and the tubes centrifuged at 15,000 g for 10 min. The supernatant was discarded and the pellet or filters resuspended and counted by liquid scintillation. Results were processed using a computer programme that calculated IC50, Kd, Bmax and Hill coefficient by linear regression. IC50 results where available are shown in column (a) of the Table.

[3] = tested on: Human erythroleukemic (HEL) cells; test: Intracellular calcium measurements in HEL cells (Fura-2); format: cell-based; settings: for HEL CELLS % Fluor (c): agonistic activity: fluorescence induced by 100 nM of the peptide; for IC50: antagonism of 5 nM NPY-induced calcium signal, read-out: HEL CELLS IC50 (d); for HEL CELLS % INHIB (b): inhibition of increase in HEL cell intracellular calcium induced by 5 nM NPY, 100 nM compound
Experimental: Human erythroleukemic (HEL) cells were loaded with Fura-2 (1 μM for 1 h), washed and then placed in a cuvette (5×10^5 cells in 2.5 ml) and excited simultaneously at 340 and 380 nm in a SLM spectrofluorometer. Fluorescence changes after the addition of NPY and/or peptide analogs were followed by recording emission at 510 nm. Calcium concentrations can be determined through a computer programme by using the ratio of fluorescence 340/380 nm. The agonistic activity of peptide analogs was tested by recording the fluorescence induced upon stimulation of the cells with 100 nM of the peptide and the antagonistic activity by observing the decrease in fluorescence induced by 5 nM NPY in the presence of the analog The results where available are indicated in column (c) of the Table.
The inhibition of the increase in the HEL cell intracellular calcium (induced by 5 nM NPY) achieved by 100 nM concentrations of each compound is shown in column (b) of the Table.

Compound: IleCysProCysTyrArgLeuArgTyr-NH2,Cyclic (2,2'),(4,4')-Disulfide Dimer (chain 1 ICPCYRLRY-NH2; chain 2 ICPCYRLRY-NH2; disulfide I:2-II:2, I:4-II:4; N-terminus assumed; SMILES CC[C@H](C)[C@H](N)C(=O)N[C@H]1CSSC[C@H](NC(=O)[C@@H](N)[C@@H](C)CC)C(=O)N2CCC[C@H]2C(=O)N[C@H](C(=O)N[C@@H](Cc2ccc(O)cc2)C(=O)N[C@@H](CCCNC(=N)N)C(=O)N[C@@H](CC(C)C)C(=O)N[C@@H](CCCNC(=N)N)C(=O)N[C@@H](Cc2ccc(O)cc2)C(N)=O)CSSC[C@@H](C(=O)N[C@@H](Cc2ccc(O)cc2)C(=O)N[C@@H](CCCNC(=N)N)C(=O)N[C@@H](CC(C)C)C(=O)N[C@@H](CCCNC(=N)N)C(=O)N[C@@H](Cc2ccc(O)cc2)C(N)=O)NC(=O)[C@@H]2CCCN2C1=O)
- IC50 [1]: 2.5 nM

Compound: IleCysProCysTyrArgLeuArgTyr-NH2,Cyclic (2,4'),(4,2')-Disulfide Dimer (chain 1 ICPCYRLRY-NH2; chain 2 ICPCYRLRY-NH2; disulfide (positions not given here); not fully specified (bridges))
- IC50 [1]: 2.5 nM

Compound: CC[C@H](C)[C@H](N)C(=O)N[C@H]1CC(=O)NC[C@@H](C(=O)N[C@@H](Cc2ccc(O)cc2)C(=O)N[C@@H](CCCNC(=N)N)C(=O)N[C@@H](CC(C)C)C(=O)N[C@@H](CCCNC(=N)N)C(=O)N[C@@H](Cc2ccc(O)cc2)C(N)=O)NC(=O)[C@@H]2CCCN2C(=O)[C@@H](NC(=O)[C@@H](N)[C@@H](C)CC)CC(=O)NC[C@@H](C(=O)N[C@@H](Cc2ccc(O)cc2)C(=O)N[C@@H](CCCNC(=N)N)C(=O)N[C@@H](CC(C)C)C(=O)N[C@@H](CCCNC(=N)N)C(=O)N[C@@H](Cc2ccc(O)cc2)C(N)=O)NC(=O)[C@@H]2CCCN2C1=O [Example 7, IleAspProDprTyrArgLeuArgTyr-NH2,Cyclic(2,4'),(2',4)-Diamide] (I: H-IDP[Dap]YRLRY-NH2 / II: H-IDP[Dap]YRLRY-NH2; amide I:2-II:4, I:4-II:2; N-terminus assumed)
- IC50 [2]: 15 nM
- HEL CELLS % Fluor (c) [3]: 0%
- IC50 [3]: 1.5 nM
- HEL CELLS % INHIB (b) [3]: 100%

Compound: CC[C@H](C)[C@H](N)C(=O)N[C@@H](CSSC[C@H](NC(=O)[C@@H](N)[C@@H](C)CC)C(=O)N1CCC[C@H]1C(=O)N[C@H](C(=O)N[C@@H](Cc1ccc(O)cc1)C(=O)N[C@@H](CCCNC(=N)N)C(=O)N[C@@H](CC(C)C)C(=O)N[C@@H](CCCNC(=N)N)C(=O)N[C@@H](Cc1ccc(O)cc1)C(N)=O)[C@@H](C)CC)C(=O)N1CCC[C@H]1C(=O)N[C@H](C(=O)N[C@@H](Cc1ccc(O)cc1)C(=O)N[C@@H](CCCNC(=N)N)C(=O)N[C@@H](CC(C)C)C(=O)N[C@@H](CCCNC(=N)N)C(=O)N[C@@H](Cc1ccc(O)cc1)C(N)=O)[C@@H](C)CC [Example 13, (IleCysProIleTyrArgLeuArgTyr-NH2)2] (I: H-ICPIYRLRY-NH2 / II: H-ICPIYRLRY-NH2; disulfide I:2-II:2 (inferred); N-terminus assumed)
- IC50 [2]: 35 nM
- HEL CELLS % Fluor (c) [3]: 0%
- IC50 [3]: 0.75 nM
- HEL CELLS % INHIB (b) [3]: 100%

Compound: CC[C@H](C)[C@H](N)C(=O)N[C@H]1CNC(=O)C[C@@H](C(=O)N[C@@H](Cc2ccc(O)cc2)C(=O)N[C@@H](CCCNC(=N)N)C(=O)N[C@@H](CC(C)C)C(=O)N[C@@H](CCCNC(=N)N)C(=O)N[C@@H](Cc2ccc(O)cc2)C(N)=O)NC(=O)[C@@H]2CCCN2C(=O)[C@@H](NC(=O)[C@@H](N)[C@@H](C)CC)CNC(=O)C[C@@H](C(=O)N[C@@H](Cc2ccc(O)cc2)C(=O)N[C@@H](CCCNC(=N)N)C(=O)N[C@@H](CC(C)C)C(=O)N[C@@H](CCCNC(=N)N)C(=O)N[C@@H](Cc2ccc(O)cc2)C(N)=O)NC(=O)[C@@H]2CCCN2C1=O [Example 8, IleDprProAspTyrArgLeuArgTyr-NH2,Cyclic(2,4'),(2',4)-Diamide] (I: H-I[Dap]PDYRLRY-NH2 / II: H-I[Dap]PDYRLRY-NH2; amide I:2-II:4, I:4-II:2; N-terminus assumed)
- IC50 [2]: 7.5 nM
- HEL CELLS % Fluor (c) [3]: 0%
- IC50 [3]: 2.5 nM
- HEL CELLS % INHIB (b) [3]: 100%

Compound: CC[C@H](C)[C@H](N)C(=O)N[C@@H](CC(N)=O)C(=O)N1CCC[C@H]1C(=O)NC(CCCC(NC(=O)[C@@H]1CCCN1C(=O)[C@H](CC(N)=O)NC(=O)[C@@H](N)[C@@H](C)CC)C(=O)N[C@@H](Cc1ccc(O)cc1)C(=O)N[C@@H](CCCNC(=N)N)C(=O)N[C@@H](CC(C)C)C(=O)N[C@@H](CCCNC(=N)N)C(=O)N[C@@H](Cc1ccc(O)cc1)C(N)=O)C(=O)N[C@@H](Cc1ccc(O)cc1)C(=O)N[C@@H](CCCNC(=N)N)C(=O)N[C@@H](CC(C)C)C(=O)N[C@@H](CCCNC(=N)N)C(=O)N[C@@H](Cc1ccc(O)cc1)C(N)=O (stereo partly drawn) [Example 14, IleAsnPro TyrArgLeuArgTyr-NH2 (SEQ.ID.No:17) Pim IleAsnPro TyrArgLeuArgTyr-NH2 (SEQ.ID.No:17)]
- IC50 [2]: 1.9 nM
- HEL CELLS % Fluor (c) [3]: 0%
- IC50 [3]: 5 nM
- HEL CELLS % INHIB (b) [3]: 100%
